System: cysteine cathepsins
Assay: inhibition of probe labeling in living RAW cells by JPM-OEt pretreatment
Type: cell-based, mouse
Conditions: JPM-OEt pre-treatment (50 μM, 1 hr)
Experimental: RAW cells were cultured in DMEM (GIBCO) supplemented with 10% fetal bovine serum (FBS; GIBCO), 100 units/mL penicillin and 100 μg/mL streptomycin (GIBCO). 4T1 cells (ATCC) were cultured in RPMI (GIBCO) supplemented with 10% fetal bovine serum (FBS; GIBCO), 100 units/mL penicillin and 100 μg/mL streptomycin (GIBCO). All cells were cultured in a 5% CO2 humidified incubator at 37° C. For intact cell labeling, cells were exposed to probe (500× in DMSO) in culture media and incubated for 2 hr at 37° C., unless stated otherwise. Where indicated the cells were preincubated for 1 hr with the inhibitor JPM-OEt (500× in DMSO) or exposed to mouse serum (1 μl probe stock solution in DMSO added to 9 μl serum) for 4 hr before addition to the cells. After labeling, the cells were washed with PBS and resuspended in hypotonic lysis buffer (50 mM PIPES pH 7.4, 10 mM KCl, 5 mM MgCl2, 2 mM EDTA, 4 mM DTT, and 1% NP-40) and put on ice for 15 min, centrifuged at 4° C. for 30 min and supernatants were collected, and protein concentration was determined using a BCA kit (pierce). […] Labeling intensities were quantified using Image J software. […] After 15 min on ice and centrifugation at 4° C. for 30 min the supernatants were collected, and protein concentration was determined using a BCA kit (pierce). […] 4× SDS-sample buffer was added and the protein was denatured for 3 min at 100° C. and analyzed as described above. […]

How did the “blocking of probe labeling” value turn out when JPM-OEt was run?
Its value is “more than 90%”.

From patent publication US12059482B2, “Activity-based probe compounds, compositions, and methods of use” (THE BOARD OF TRUSTEES OF THE LELAND STANFORD JUNIOR …, priority 2016, dated 2024)
